The test concerns the target T1, FLT3 (h) (Homo sapiens, UniProt P36888).
T1 construct: purchased Millipore UK Ltd (contract assay service)
T1 sequence (P36888 27-993): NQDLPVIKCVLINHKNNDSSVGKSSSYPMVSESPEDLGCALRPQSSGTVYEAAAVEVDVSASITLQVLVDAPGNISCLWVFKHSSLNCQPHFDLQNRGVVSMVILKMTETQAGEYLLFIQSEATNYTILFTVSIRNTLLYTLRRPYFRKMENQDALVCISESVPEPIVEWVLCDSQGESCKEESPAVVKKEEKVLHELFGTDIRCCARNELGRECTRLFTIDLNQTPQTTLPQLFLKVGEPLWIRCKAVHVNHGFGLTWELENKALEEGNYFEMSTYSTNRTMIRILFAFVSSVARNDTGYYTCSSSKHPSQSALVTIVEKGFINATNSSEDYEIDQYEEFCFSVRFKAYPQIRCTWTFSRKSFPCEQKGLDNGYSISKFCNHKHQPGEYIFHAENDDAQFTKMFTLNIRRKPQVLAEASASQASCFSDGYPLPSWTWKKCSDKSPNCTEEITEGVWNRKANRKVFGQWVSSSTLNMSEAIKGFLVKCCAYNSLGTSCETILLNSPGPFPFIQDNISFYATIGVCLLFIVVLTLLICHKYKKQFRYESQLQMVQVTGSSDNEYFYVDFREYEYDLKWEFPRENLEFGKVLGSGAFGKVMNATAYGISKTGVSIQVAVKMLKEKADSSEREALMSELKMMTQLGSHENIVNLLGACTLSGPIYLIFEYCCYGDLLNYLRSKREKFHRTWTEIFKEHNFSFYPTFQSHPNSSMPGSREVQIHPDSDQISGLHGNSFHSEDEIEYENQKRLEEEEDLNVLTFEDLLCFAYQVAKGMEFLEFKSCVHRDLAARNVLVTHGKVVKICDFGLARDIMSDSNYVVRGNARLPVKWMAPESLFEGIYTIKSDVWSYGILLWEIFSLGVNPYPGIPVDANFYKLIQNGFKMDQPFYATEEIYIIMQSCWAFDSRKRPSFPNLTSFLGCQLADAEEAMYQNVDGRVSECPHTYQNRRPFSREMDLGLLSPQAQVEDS
In words: FLT3 (h) kinase assay. The format is biochemical. The protocol:
Kinase assays can be performed by measurement of incorporation of γ-33P ATP into immobilized myelin basic protein (MBP). High binding white 384 well plates (Greiner) are coated with MBP (Sigma #M-1891) by incubation of 60 μL/well of 20 μg/mL MBP in Tris-buffered saline (TBS; 50 mM Tris pH 8.0, 138 mM NaCl, 2.7 mM KCl) for 24 h at 4° C. Plates are washed 3× with 100 μL TBS. Kinase reactions are carried out in a total volume of 34 μL in kinase buffer (according to the need to make, for example, 5 mM Hepes pH 7.6, 15 mM NaCl, 0.01% bovine gamma globulin (Sigma #I-5506), 10 mM MgCl2, 1 mM DTT, 0.02% TritonX-100). Compound dilutions are performed in DMSO and added to assay wells to a final DMSO concentration of 1%. Each data point is measured in duplicate, and at least two duplicate assays are performed for each individual compound determination. Enzyme is added to final concentrations of 10 nM or 20 nM, for example. A mixture of unlabeled ATP and γ-33P ATP is added to start the reaction (2×10^6 cpm of γ-33P ATP per well (3000 Ci/mmole) and 10 μM unlabeled ATP, typically. The reactions are carried out for 1 h at room temperature with shaking Plates are washed 7× with TBS, followed by the addition of 50 μL/well scintillation fluid (Wallac). Plates are read using a Wallac Trilux counter. This is only one format of such assays; various other formats are possible, as known to one skilled in the art.
The above assay procedure can be used to determine the IC50 for inhibition and/or the inhibition constant, Ki. The IC50 is defined as the concentration of compound required to reduce the enzyme activity by 50% under the condition of the assay. The IC50 value is estimated by preparing a 10 point curve using a ½ log dilution series (for example, a typical curve may be prepared using the following compound concentrations: 3 μM, 1 μM, 0.3 μM, 0.1 μM, 0.03 μM, 0.01 μM, 0.003 μM, 0.001 μM, 0.0003 μM and 0 μM).
FLT3 (h) is incubated with 8 mM MOPS pH 7.0, 0.2 mM EDTA, 50 μM EAIYAAPFAKKK, 10 mM MgAcetate and [γ-^33P-ATP] (specific activity approx. 500 cpm/pmol, concentration as required). The reaction is initiated by the addition of the MgATP mix. After incubation for 40 minutes at room temperature, the reaction is stopped by the addition of 3% phosphoric acid solution. 10 μL of the reaction is then spotted onto a P30 filtermat and washed three times for 5 minutes in 75 mM phosphoric acid and once in methanol prior to drying and scintillation counting.
The kinase assays described herein were performed at Millipore UK Ltd, Dundee Technology Park, Dundee DD2 1SW, UK.
With `Cc1nn(C)cc1Nc1ncc(Cl)c(NC2CCN(c3ccc(C#N)cn3)CC2)n1` [Ex. 10, 6-(4-((5-chloro-2-((1,3-dimethyl-1H-pyrazol-4-yl)amino)pyrimidin-4-yl)amino)piperidin-1-yl)nicotinonitrile], the IC50 (commonly the concentration needed to halve the response being measured) came to 9 nM.

Molecule `Cc1c2ccc(Nc3ncc(Cl)c(NC4CCN(c5ccc(C#N)nn5)CC4)n3)cc2nn1C` [Ex. 12, 6-(4-((5-chloro-2-((2,3-dimethyl-2H-indazol-6-yl)amino)pyrimidin-4-yl)amino)piperidin-1-yl)pyridazine-3-carbonitrile] yielded an IC50 of 4 nM.

Molecule `CN(c1nc(Nc2cnn(C)c2)ncc1Cl)C1CCN(c2ccc(C#N)cn2)CC1` [Ex. 5, 6-(4-((5-chloro-2-((1-methyl-1H-pyrazol-4-yl)amino)pyrimidin-4-yl) (methyl)amino)piperidin-1-yl)nicotinonitrile] gave a 50% inhibitory concentration (IC50) of 42 nM.

`Cc1c2ccc(Nc3ncc(Cl)c(NC4CCN(c5ccc(C#N)cn5)CC4)n3)cc2nn1C` [Ex. 4]: the IC50 amounted to 151 nM.

Turning to `Cc1nn(C)cc1Nc1ncc(Cl)c(NC2CCN(c3ccc(C#N)nn3)CC2)n1` [Ex. 11, 6-(4-((5-chloro-2-((1,3-dimethyl-1H-pyrazol-4-yl)amino)pyrimidin-4-yl)amino)piperidin-1-yl)pyridazine-3-carbonitrile], inhibition was half-maximal at 21 nM (IC50).

`Cn1cc(Nc2ncc(Cl)c(NC3CCN(c4ccc(C#N)cn4)CC3)n2)cn1` [Ex. 1, 6-(4-((5-chloro-2-((1-methyl-1H-pyrazol-4-yl)amino)pyrimidin-4-yl)amino)piperidin-1-yl)nicotinonitrile]: half-maximal inhibition (IC50) required 6 nM.

In the case of `Cc1cc(Nc2ncc(Cl)c(NC3CCN(c4ccc(C#N)nn4)CC3)n2)nn1C` [Ex. 13, 6-(4-((5-chloro-2-((1,5-dimethyl-1H-pyrazol-3-yl)amino)pyrimidin-4-yl)amino)piperidin-1-yl)pyridazine-3-carbonitrile], inhibition was half-maximal at 48 nM (IC50).

For the origin of these results see patent US10059689B2, “Substituted heteroaryl compounds and methods of use” (Sunshine Lake Pharma Co., Ltd., priority 2014, dated 2018).
